The source of these data is patent US9980976B2, “Use of REDD1 inhibitors to dissociate therapeutic and adverse atrophogenic effects of glucocorticoid receptor agonists” (Northwestern University, priority 2015, dated 2018).

This test deals with FKBP51 and GILZ. The test can be described thus: Q-PCR analysis of GR target genes FKBP51 and GILZ in HaCaT and CEM cells. Type of test: cell-based, human. The following applies: FA 1 uM 24 h. How it is done: FIG. 13. Rapamycin inhibits GR transactivation. A, B. Q-PCR analysis of FKBP51 and GILZ expression in HaCaT (A) and CEM (B) cells. Cells were pretreated with solvent or Rapa (1 uM)×6 hrs and treated with solvent (Control) or FA (1 uM) for 24 h. A,B. Q-PCR results were normalized to the expression of the housekeeping Rp127 gene, and presented as fold of change compared to control cells. The means+/−SD calculated for three individual RNA samples/condition. a—Statistically significant difference (P<0.05) compared to control; b—Statistically significant differences (P<0.05) compared to FA treatment. C. Inhibitory effect of rapamycin on GRE.Luciferase reporter. […] The means+SD were calculated for three individual wells/group in one representative experiment (out of three experiments). a—Statistically significant differences (P<0.05) in comparison to vehicle treatment; b—Statistically significant differences (P<0.05) in comparison to FA treatment.
Total RNA from murine epidermis, whole human skin, and cell cultures was isolated with RiboPure kit (Ambion, Life Technologies, Grand Island, N.Y., USA). […] The gene expression was assessed using semi-quantitative two-step RT-PCR and quantitative Q-PCR. […] For semi-quantitative PCRs, Taq DNA polymerase (Promega) was used, and PCR products were separated on 1.5% agarose gel and visualized using automated imaging system (Bio-Rad, Hercules, Calif., USA). […]

As for `CC1(C)O[C@@H]2C[C@H]3[C@@H]4C[C@H](F)C5=CC(=O)C=C[C@]5(C)[C@@]4(F)[C@@H](O)C[C@]3(C)[C@]2(C(=O)CO)O1` [FA, fluocinolone acetonide], the “FKBP51 and GILZ expression” value is “strongly activated”.
